Where two headings read alike, the source gives them in different places. Square brackets hold non-standard residues; d marks the D form. dAc‑VIN = 4-desacetylvinblastine; Chg = N[C@H](C(=O)O)C1CCCCC1

One test has as its target T1, free PSA (York PSA) (Homo sapiens, UniProt P07288).
T1 construct: purchased York ('York PSA')
Kind of test: Recognition of oligopeptide-vinca drug conjugates by free PSA (time to 50% cleavage, HPLC). To be noted: for Time to 50% Substrate Cleavage by York PSA: conjugate to PSA molar ratio 100 to 1, pH 7.4. The class given is biochemical. The procedure: The reaction was quenched after various reaction times by the addition of trifluoroacetic acid (TFA) to a final 1% (volume/volume). Alternatively the reaction is quenched with 10 mM ZnCl2. The quenched reaction was analyzed by HPLC on a reversed-phase C18 column using an aqueous 0.1%TFA/acetonitrile gradient. The amount of time (in minutes) required for 50% cleavage of the noted oligopeptide-cytotoxic agent conjugates with enzymatically active free PSA were then calculated.

The test system of a further test is Colo320DM cells. The experiment in a line: In vitro cytotoxicity, Alamar Blue assay, Colo320DM control cell line (does not express free PSA). The class given is cell-based. The method, then:
(§1) In vitro Assay of Cytotoxicity of Peptidyl Derivatives of Vinca Drugs
(§2) The cytotoxicities of the cleaveable oligopeptide-vinca drug conjugates, prepared as described in Example 3, against a line of cells which is known to be killed by unmodified vinca drug was assessed with an Alamar Blue assay. Specifically, cell cultures of LNCap prostate tumor cells, Colo32ODM cells (designated C320) or T47D cells in 96 well plates was diluted with medium containing various concentrations of a given conjugate (final plate well volume of 200 μl). […] The cells were incubated for 3 days at 37° C., 20 μl of Alamar Blue is added to the assay well. The cells were further incubated and the assay plates were read on a EL-310 ELISA reader at the dual wavelengths of 570 and 600 nm at 4 and 7 hours after addition of Alamar Blue. Relative percentage viability at the various concentration of conjugate tested was then calculated versus control (no conjugate) cultures and an EC50 was determined. Unless otherwise indicated, the acetate salt of the conjugate was tested.
On the technique in general: The colour change of resazurin is a common sign of viable cells or microbes.

For test [1], the system named is LNCaP prostate tumor cells. Kind of test: In vitro cytotoxicity, Alamar Blue assay, LNCaP cell kill. It counts as cell-based. The method, then: as §1
as §2, with “Specifically,” for “The cytotoxicities of the cleaveable oligopeptide-vinca drug conjugates, prepared as described in Example 3, against a line of cells which is known to be killed by unmodified vinca drug was assessed with an Alamar Blue assay. Specifically,”

The mark [2] stands for this setting: 72 HRS, second part of Table 2, read-out: Colo320DM EC 50.
[3] abbreviates: 72 HRS, second part of Table 2, read-out: LNCaP Cell Kill in 72 HRS. {48 HRS} EC 50.
The mark [4] stands for this setting: 72 HRS, read-out: Colo320DM EC 50.
Where [5] appears, read: 72 HRS, read-out: LNCaP Cell Kill in 72 HRS. {48 HRS} EC 50.

T1 sequence (P07288 25-261): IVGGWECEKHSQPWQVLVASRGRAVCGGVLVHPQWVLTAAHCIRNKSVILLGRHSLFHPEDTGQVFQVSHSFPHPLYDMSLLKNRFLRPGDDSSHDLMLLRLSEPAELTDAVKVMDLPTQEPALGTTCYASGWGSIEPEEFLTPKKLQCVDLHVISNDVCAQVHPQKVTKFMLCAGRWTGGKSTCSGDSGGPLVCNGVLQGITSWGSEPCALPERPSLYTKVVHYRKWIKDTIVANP

With “Ac-AbuSSChgQ-SS-(4-O-P)-dAc-VIN: peptide-vinca drug conjugate, SEQ ID NO 109 in Table 1, 108 in Table 2 (XSSXQSSP; N-acetyl; desacetylvinblastine conjugate)”, in the test with free PSA (York PSA), the “Time to 50% Substrate Cleavage by York PSA” value worked out at 7 min. Further, the EC50 is 28.4 µM in the test on Colo320DM cells (setting [2]) and 12.8 µM in test [1] (setting [3]).

For the molecule “4-O-((2-OH)Ac-Abu-SSChgQ-S-P)-dAc-VIN: peptide-vinca drug conjugate, SEQ ID NO 91 (XSSXQSP; N-hydroxyacetyl; desacetylvinblastine conjugate)”, in the test with free PSA (York PSA), the “Time to 50% Substrate Cleavage by York PSA” value came out at 110 min. The EC50 in the test on Colo320DM cells (setting [4]) was 52.5 µM; in test [1] (setting [5]) it was 11.9 µM.

In the case of “Ac-4-trans-L-HypSSChgQS-(4-O-Ala)-(dAc)-VIN: peptide-vinca drug conjugate, SEQ ID NO 103 (XSSXQSA; N-acetyl; desacetylvinblastine conjugate)”, in the test with free PSA (York PSA), the “Time to 50% Substrate Cleavage by York PSA” value is 23 min. For the same molecule, the figures for the EC50 (in the test on Colo320DM cells (setting [2]); in test [1] (setting [3])) were 32.5 µM and 12.5 µM, respectively.

As to “4-O-(Ac-4-trans-L-HypSSChgQ-S-P)-dAc-VIN: peptide-vinca drug conjugate, SEQ ID NO 96 (XSSXQSP; N-acetyl; desacetylvinblastine conjugate)”, the “Substrate cleavage by York PSA after 1 HOUR” value with free PSA (York PSA) came to 8%. The EC50 with Colo320DM cells (setting [4]) was 83.9 µM; in the test on Colo320DM cells (in 5% FBS, read-out: Colo320DM EC 50 in 5% FBS), 26 µM; in test [1] (setting [5]), 47.9 µM; in test [1] (in 5% FBS, read-out: LNCaP Cell Kill EC 50 in 5% FBS) it was > 16 µM.

As to “4-O-[Ac-4-trans-L-HypSSChgQSS-Pip]-dAc-VIN: peptide-vinca drug conjugate, SEQ ID NO 124 (XSSXQSSX; N-acetyl; desacetylvinblastine conjugate)”, the “Time to 50% Substrate Cleavage by York PSA” value with free PSA (York PSA) came out at 13 min. The EC50 came out at 60 µM in the test on Colo320DM cells (setting [2]) and 7.5 µM in test [1] (setting [3]).

For “4-O-(Ac-SChgQ-SSP)-dAc-VIN: peptide-vinca drug conjugate, SEQ ID NO 116 (XXQSSP; N-acetyl; desacetylvinblastine conjugate)”, the “Time to 50% Substrate Cleavage by York PSA” value with free PSA (York PSA) was found to be 15 min. The EC50 in the test on Colo320DM cells (setting [2]) was 20 µM; in test [1] (setting [3]) it was 15 µM.

For “4-O-(Ac-3-Pal-SSChgQS-P)-dAc-VIN: peptide-vinca drug conjugate, SEQ ID NO 92”, the “Time to 50% Substrate Cleavage by York PSA” value with free PSA (York PSA) came to 80 min. Also, the EC50 was determined as 8 µM in the test with Colo320DM cells (setting [4]) and 5.8 µM in test [1] (setting [5]).

Turning to “4-O-[Ac-4-trans-L-HypSSChg(dQ)SSP]-dAc-VIN: peptide-vinca drug conjugate, SEQ ID NO 114 (XSSXXSSP; N-acetyl; D-Gln; desacetylvinblastine conjugate)”, the “Substrate cleavage by York PSA, 10 X ENZ o/n” value with free PSA (York PSA) (10 X ENZ, o/n) came out at 0%. Besides, the EC50 in the test with Colo320DM cells (setting [2]) was 43.7 µM; in test [1] (setting [3]) it was 12.2 µM.

On to “4-O-[Ac--SChgQSS-Sar]-dAc-VIN: peptide-vinca drug conjugate, SEQ ID NO 118 (XXQSSG; N-acetyl; desacetylvinblastine conjugate)”, for which the “Time to 50% Substrate Cleavage by York PSA” value in the test with free PSA (York PSA) is 39 min. The values for the EC50 (with Colo320DM cells (setting [2]); in test [1] (setting [3])) were 3 µM and 0.8 µM, respectively.

Regarding “4-O-(Ac-SSChgQS-Gly)-(dAc)-VIN: peptide-vinca drug conjugate, SEQ ID NO 98 (Ac-SS[Chg]QSG-{dAc‑VIN}; also: C-terminal ester to 4-OH of desacetylvinblastine)”, the “Time to 50% Substrate Cleavage by York PSA” value with free PSA (York PSA) is 55 min. Moreover, the EC50 (in the test on Colo320DM cells (setting [4]); in test [1] (setting [5])) was 16.3 µM each time.

Take “4-O-(Ac-Abu-SSChgQ-SP)-dAc-VIN: peptide-vinca drug conjugate, SEQ ID NO 90 (XSSXQSP; N-acetyl; desacetylvinblastine conjugate)”: the “Time to 50% Substrate Cleavage by York PSA” value with free PSA (York PSA) came out at 80 min. Moreover, the EC50 was 14.5 µM in the test with Colo320DM cells (setting [4]); 23.8 µM in the test with Colo320DM cells (in 0.5% FBS, read-out: Colo320DM EC 50 in 0.5% FBS); 9.7 µM in test [1] (setting [5]); > 5 µM in test [1] (in 0.5% FBS, read-out: LNCaP Cell Kill EC 50 in 0.5% FBS).

In the case of “4-O-(Ac-4-trans-L-HypSSChgQSS-(d)-Pro)-(dAc)-VIN: peptide-vinca drug conjugate, SEQ ID NO 87 (XSSXQSSP; N-acetyl; D-Pro; desacetylvinblastine conjugate)”, the “Substrate cleavage by York PSA after 1 HOUR” value with free PSA (York PSA) was 34%. Also, the EC50 in the test on Colo320DM cells (setting [4]) turned out to be 8.1 µM; in test [1] (setting [5]) it was 4.1 µM.

For the molecule “4-O-(Ac-4-trans-L-HypSSChgQSV-lactyl)-dAc-VIN: peptide-vinca drug conjugate, SEQ ID NO 94”, the “Remark printed with the cleavage time (stability of conjugate / fate of product)” value in the test with free PSA (York PSA) (PSA digestion) is listed as “stable”. Further, the “Time to 50% Substrate Cleavage by York PSA” value in the test with free PSA (York PSA) was determined as 7 min. In addition, the EC50 in the test with Colo320DM cells (setting [4]) worked out at 8.1 µM; in test [1] (setting [5]), 3.1 µM.

Take `CCC1(O)CC2CN(CCc3c([nH]c4ccccc34)C(C(=O)OC)(c3cc4c(cc3OC)N(C)C3C(O)(C(=O)OC)C(OC(=O)C5CCCN5)C5(CC)C=CCN6CCC43C65)C2)C1` (centres unmarked) [4-O-(prolyl)-dAc-VIN, 4-des- Acetylvinblastine 4-O-(Prolyl) ester]: the EC50 in the test with Colo320DM cells (setting [2]) worked out at 4.1 µM; in test [1] (setting [3]), 0.7 µM.

For “4-O-(Ac-4-trans-L-HypSSChgQSV-glycolyl)-VIN: peptide-vinca drug conjugate, SEQ ID NO 88 (XSSXQSV; N-acetyl; glycolyl linker; vinblastine conjugate)”, in the test with free PSA (York PSA), the “Time to 50% Substrate Cleavage by York PSA” value amounted to 8 min. Moreover, the EC50 with Colo320DM cells (setting [4]) is 8.1 µM; in test [1] (setting [5]) it was 4.1 µM.

In the case of `CC[C@]1(O)C[C@@H]2CN(CCc3c([nH]c4ccccc34)[C@@](C(=O)OC)(c3cc4c(cc3OC)N(C)[C@H]3[C@@](O)(C(=O)OC)[C@H](OC(=O)CN)[C@]5(CC)C=CCN6CC[C@]43[C@@H]65)C2)C1` [4-O-glycine-(dAc)-VIN], the EC50 in the test on Colo320DM cells (setting [4]) came out at 1.8 µM; in test [1] (setting [5]) it was 0.3 µM.

“4-O-(Ac-4-trans-L-HypSSChgQ-SS-4-trans-L-Hyp)-dAc-VIN: peptide-vinca drug conjugate, SEQ ID NO 95 (XSSXQSSX; N-acetyl; desacetylvinblastine conjugate)”: the “Time to 50% Substrate Cleavage by York PSA” value with free PSA (York PSA) was determined as 13 min. Further, the figures for the EC50 (in the test on Colo320DM cells (setting [4]); in test [1] (setting [5])) were 13.1 µM and 16.3 µM, respectively.

In the case of “des-Acetylvinblastine-4-O-(N-Acetyl-4-trans-L-Hyp-Ser-Ser Chg-Gln-Ser-Ser-Pro) ester acetate (XSSXQSSP; N-acetyl; desacetylvinblastine ester; acetate salt)”, the “Time to 50% Substrate Cleavage by York PSA” value with free PSA (York PSA) came to 17 min. Also, the EC50 in the test on Colo320DM cells (setting [4]) is 12 µM; in test [1] (setting [5]), 3 µM.

Consider “4-O-(Ac-4-trans-L-HypSSChgQSS-Sar)-(dAc)-VIN: peptide-vinca drug conjugate, printed under SEQ ID NO 86 and 105 (XSSXQSSG; N-acetyl; desacetylvinblastine conjugate)”, for which the “Time to 50% Substrate Cleavage by York PSA” value in the test with free PSA (York PSA) stood at 32 min; with free PSA (York PSA) (listed as Ac-4-trans-L-HypSSChgQSS-(4-O-Sar)-(dAc)-VIN) it was 15 min. In addition, the EC50 in the test on Colo320DM cells (setting [4]) stood at 13 µM; in the test on Colo320DM cells (setting [2]), 12 µM; in test [1] (setting [5]), 4.1 µM; in test [1] (setting [3]), 12 µM.

For the molecule `CCC1(O)CC2CN(CCc3c([nH]c4ccccc34)C(C(=O)OC)(c3cc4c(cc3OC)N(C)C3C(O)(C(=O)OC)C(OC(=O)C(C)N)C5(CC)C=CCN6CCC43C65)C2)C1` (centres unmarked) [(4-O-Ala)-(dAc)-VIN], the EC50 in the test with Colo320DM cells (setting [2]) amounted to 4.2 µM; in test [1] (setting [3]), 0.6 µM.

Values taken from patent US6174858A, “Conjugates useful in the treatment of prostate cancer” (Merck & Co., Inc., priority 1998, dated 2001).
